Results on 25 compounds are retold here after article PMC9693052, “Synthesis of 2-Aminopyrimidine Derivatives and Their Evaluation as β-Glucuronidase Inhibitors: In Vitro and In Silico Studies” (Molecules, 2022).

Each structure is given as a SMILES string. Where only a bound is given, the exact number is not on record here.

In general, melting point refers to the temperature of the solid-liquid transition.

The compound `Nc1nc(Cl)cc(Nc2ccccc2)n1` [Compound 1, 6-Chloro-4-(N-phenyl)-2,4-pyrimidinediamine] displayed a melting point of 175 to 177 °C.

Regarding `COc1ccccc1Nc1cc(Cl)nc(N)n1` [Compound 2, 6-Chloro-4-(N-(2-methoxy)phenyl)-2,4-pyrimidinediamine], the melting point lay in the range of 240 to 242 °C.

Take `COc1cccc(Nc2cc(Cl)nc(N)n2)c1` [Compound 3, 6-Chloro-4-(N-(3-methoxy)phenyl)-2,4-pyrimidinediamine]: the melting point was 178 to 180 °C.

`COc1ccc(Nc2cc(Cl)nc(N)n2)cc1` [Compound 4, 6-Chloro-4-(N-(4-methoxy)phenyl)-2,4-pyrimidinediamine] had a melting point of 222 to 223 °C.

`COc1ccc(OC)c(Nc2cc(Cl)nc(N)n2)c1` [Compound 5, 6-Chloro-4-(N-(2,5-dimethoxy)phenyl)-2,4-pyrimidinediamine] had a melting point of 182 to 184 °C.

Compound `COc1cc(Nc2cc(Cl)nc(N)n2)ccc1C` [Compound 6, 6-Chloro-4-(N-(3-methoxy-4-methyl)phenyl)-2,4-pyrimidinediamine] showed a melting point of 245 to 247 °C.

`CCCCOc1ccc(Nc2cc(Cl)nc(N)n2)cc1` [Compound 8, 6-Chloro-4-(N-(4-n-butoxy)phenyl)-2,4-pyrimidinediamine] displayed a melting point of 180 to 182 °C.

In turn, `CCCCCCCCOc1ccc(Nc2cc(Cl)nc(N)n2)cc1` [Compound 9] returned a melting point of 185 to 187 °C.

`Nc1nc(Cl)cc(Nc2ccc(Br)cc2)n1` [Compound 10, 6-Chloro-4-(N-(4-bromo)phenyl)-2,4-pyrimidinediamine] yielded a melting point of 190 to 192 °C.

Compound `Nc1nc(Cl)cc(Nc2cccc(Br)c2)n1` [Compound 11, 6-Chloro-4-(N-(3-bromo)phenyl)-2,4-pyrimidinediamine] displayed a melting point of 180 to 182 °C.

On to `Nc1nc(Cl)cc(Nc2ccc(Cl)cc2)n1` [Compound 12, 6-Chloro-4-(N-(4-chloro)phenyl)-2,4-pyrimidinediamine], for which the melting point fell in the range of 182 to 184 °C.

For `Nc1nc(Cl)cc(Nc2cccc(Cl)c2)n1` [Compound 13, 6-Chloro-4-(N-(3-chloro)phenyl)-2,4-pyrimidinediamine], the melting point lay within 177 to 179 °C.

`Nc1nc(Cl)cc(Nc2ccc(I)cc2)n1` [Compound 14, 6-Chloro-4-(N-(4-iodo)phenyl)-2,4-pyrimidinediamine] registered a melting point of 250 to 252 °C.

Consider `CC(C)c1ccccc1Nc1cc(Cl)nc(N)n1` [Compound 16, 6-Chloro-4-(N-(2-isopropyl)phenyl)-2,4-pyrimidinediamine], for which the melting point lay within 170 to 172 °C.

`Cc1cccc(Nc2cc(Cl)nc(N)n2)c1C` [Compound 17, 6-Chloro-4-(N-(2,3-dimethyl)phenyl)-2,4-pyrimidinediamine] returned a melting point of 176 to 178 °C.

Compound `Cc1ccc(C)c(Nc2cc(Cl)nc(N)n2)c1` [Compound 18, 6-Chloro-4-(N-(2,5-dimethyl)phenyl)-2,4-pyrimidinediamine] yielded a melting point of 173 to 175 °C.

In turn, `Cc1ccc(Cl)cc1Nc1cc(Cl)nc(N)n1` [Compound 19, 6-Chloro-4-(N-(5-chloro-2-methyl)phenyl)-2,4-pyrimidinediamine] showed a melting point of 175 to 177 °C.

As to `Cc1ccc(Nc2cc(Cl)nc(N)n2)c(C)c1` [Compound 20, 6-Chloro-4-(N-(2,4-dimethyl)phenyl)-2,4-pyrimidinediamine], the melting point lay in the range of 178 to 180 °C.

The compound `Cc1ccc(Nc2cc(Cl)nc(N)n2)cc1C` [Compound 21, 6-Chloro-4-(N-(3,4-dimethyl)phenyl)-2,4-pyrimidinediamine] had a melting point of 179 to 180 °C.

`CCc1ccc(Nc2cc(Cl)nc(N)n2)cc1` [Compound 22, 6-Chloro-4-(N-(4-ethyl)phenyl)-2,4-pyrimidinediamine] came in with a melting point of 172 to 174 °C.

Regarding `CCCCc1ccc(Nc2cc(Cl)nc(N)n2)cc1` [Compound 23, 6-Chloro-4-(N-(4-n-butyl)phenyl)-2,4-pyrimidinediamine], the melting point is 175 to 177 °C.

`Nc1nc(Cl)cc(N2CCNCC2)n1` [Compound 24, 4-Chloro-6-(1-piperazinyl)-2-pyrimidinylamine] displayed a melting point greater than 300 °C.

For the compound `Nc1nc(Cl)cc(N2CCN(c3ccccc3)CC2)n1` [Compound 25, 6-Chloro-6-(4-phenyl-1-piprazinyl)-2-pyrimidine amine], the melting point lay within 200 to 202 °C.

Regarding `Nc1nc(Cl)cc(NCc2cccnc2)n1` [Compound 26, 6-Chloro-4-(N-(3-pyridinyl)methyl)-2,4-pyrimidinediamine], the melting point lay within 210 to 212 °C.

In the case of `Nc1nc(Cl)cc(NCc2ccco2)n1` [Compound 27, 6-Chloro-4-(N-(furan-2-yl)methyl)-2,4-pyrimidinediamine], the melting point lay within 140 to 142 °C.
